Test results from the SangsterLogP compilation.

Row | logP | Structure (SMILES)
1 | 2.08 | CCOc1cc(Cc2cnc(N)nc2N)cc(OCC)c1OCC
2 | 1.73 | COc1c(Br)c(Cc2cnc(N)nc2N)c(Br)c(OC)c1OC
3 | 1.72 | CCOc1ccc(Cc2cnc(N)nc2N)cc1OCC
4 | 2.18 | CCOc1cc(Br)c(Cc2cnc(N)nc2N)cc1OC
5 | 1.86 | CCOc1cc(Cc2cnc(N)nc2N)c(Br)cc1OC
6 | 3.17 | COc1cc(Cc2cnc(N)nc2N)c(Br)cc1Br
7 | 2.9 | CCOc1cc(Cc2cnc(N)nc2N)c(I)c(OCC)c1OCC
8 | 1.88 | CCCOc1cc(Cc2cnc(N)nc2N)ccc1OC
9 | 2.84 | CCCOc1cc(Br)c(Cc2cnc(N)nc2N)cc1OC
10 | 1.66 | COc1cc(Cc2cnc(N)nc2N)c(Br)c(OC)c1OC
11 | 1.2 | CCOc1cc(Cc2cnc(N)nc2N)ccc1OC
12 | 1.81 | CCOc1cc(Cc2cnc(N)nc2N)c(Br)c(OCC)c1OCC
13 | 1.34 | CCOc1ccc(Cc2cnc(N)nc2N)cc1OC
14 | 1.64 | COc1cc(Br)c(Cc2cnc(N)nc2N)cc1OC
15 | 2.44 | COc1ccc(Br)cc1Cc1cnc(N)nc1N
16 | 2.31 | CCCOc1cc(Cc2cnc(N)nc2N)c(Br)cc1OC

Continued, molecule first:

Row | Structure (SMILES) | logP
17 | COc1ccc(Cc2cnc(N)nc2N)cc1N | 0.76
18 | COc1cc(Cc2cnc(N)nc2N)ccc1Nc1ccccc1 | 3.42
19 | COc1ccc(Cc2cnc(N)nc2N)cc1Nc1ccccc1 | 2.88
20 | COc1ccc(Cc2cnc(N)nc2N)cc1I | 2.09
21 | CCCOc1ccc(Cc2cnc(N)nc2N)cc1OC | 2.02
22 | COc1cc(Cc2cnc(N)nc2N)ccc1Cl | 1.87
23 | COc1ccc(Cc2cnc(N)nc2N)cc1C | 1.91
24 | Nc1ncc(Cc2ccccc2)c(N)n1 | 1.54
25 | COc1ccc(Cc2cnc(N)nc2N)cc1N(C)C | 1.68
26 | COc1ccc(Cc2cnc(N)nc2N)cc1C(C)C | 2.79
27 | COc1cc(Cc2cnc(N)nc2N)ccc1OC1CCCC1 | 2.65
28 | COc1cc(Cc2cnc(N)nc2N)ccc1N | 0.49
29 | COc1ccc(Cc2cnc(N)nc2N)cc1Oc1ccccc1 | 2.12
30 | COc1ccc(Cc2cnc(N)nc2N)cc1F | 1.08
31 | COc1ccc(Cc2cnc(N)nc2N)cc1 | 1.34
32 | COc1ccccc1Cc1cnc(N)nc1N | 1.75
33 | CCN(CC)c1cc(Cc2cnc(N)nc2N)ccc1OC | 2.43
34 | COc1ccc(Br)c(Cc2cnc(N)nc2N)c1 | 2
35 | COc1cc(Cc2cnc(N)nc2N)ccc1N(C)C | 1.87
36 | COc1cc(Cc2cnc(N)nc2N)ccc1Oc1ccccc1 | 2.49
37 | COc1cc(Cc2cnc(N)nc2N)ccc1C(C)C | 3.14
38 | COc1ccc(Cc2cnc(N)nc2N)cc1Br | 1.88
39 | COc1ccc(I)cc1Cc1cnc(N)nc1N | 2.7
40 | CN(C)c1ccc(Cc2cnc(N)nc2N)cc1 | 1.82
